The structures appear in SMILES notation.

The target of data set [1] is T1, ENaC (Epithelial Sodium Channel) (Mus musculus, UniProt Q61180+Q9WU38+Q9WU39).
T1 construct: Mouse kidney M-1 cells were cultivated in DMEM containing 5% FCS and 5 μM dexamethasone; endogenous in cells; host or cells: Mouse kidney M-1 cells
T1 sequence (Q61180 1-699): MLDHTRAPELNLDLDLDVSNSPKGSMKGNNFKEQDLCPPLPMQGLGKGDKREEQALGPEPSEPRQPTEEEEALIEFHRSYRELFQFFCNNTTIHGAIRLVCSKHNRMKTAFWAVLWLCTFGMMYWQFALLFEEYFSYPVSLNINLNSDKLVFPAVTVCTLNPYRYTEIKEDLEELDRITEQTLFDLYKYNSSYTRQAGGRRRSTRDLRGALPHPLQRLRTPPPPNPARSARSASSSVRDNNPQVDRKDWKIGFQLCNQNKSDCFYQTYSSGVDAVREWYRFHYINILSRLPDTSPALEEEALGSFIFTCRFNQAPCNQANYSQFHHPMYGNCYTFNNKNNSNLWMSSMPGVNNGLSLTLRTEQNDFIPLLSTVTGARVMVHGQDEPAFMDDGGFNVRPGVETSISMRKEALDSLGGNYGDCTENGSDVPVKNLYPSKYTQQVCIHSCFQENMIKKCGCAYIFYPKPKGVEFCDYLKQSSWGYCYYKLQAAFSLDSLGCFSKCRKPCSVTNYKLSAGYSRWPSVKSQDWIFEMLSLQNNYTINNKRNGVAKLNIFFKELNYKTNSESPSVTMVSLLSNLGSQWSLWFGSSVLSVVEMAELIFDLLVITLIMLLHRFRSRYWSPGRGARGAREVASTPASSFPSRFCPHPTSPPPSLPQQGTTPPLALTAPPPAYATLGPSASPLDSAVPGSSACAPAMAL
T1 sequence (Q9WU38 1-638): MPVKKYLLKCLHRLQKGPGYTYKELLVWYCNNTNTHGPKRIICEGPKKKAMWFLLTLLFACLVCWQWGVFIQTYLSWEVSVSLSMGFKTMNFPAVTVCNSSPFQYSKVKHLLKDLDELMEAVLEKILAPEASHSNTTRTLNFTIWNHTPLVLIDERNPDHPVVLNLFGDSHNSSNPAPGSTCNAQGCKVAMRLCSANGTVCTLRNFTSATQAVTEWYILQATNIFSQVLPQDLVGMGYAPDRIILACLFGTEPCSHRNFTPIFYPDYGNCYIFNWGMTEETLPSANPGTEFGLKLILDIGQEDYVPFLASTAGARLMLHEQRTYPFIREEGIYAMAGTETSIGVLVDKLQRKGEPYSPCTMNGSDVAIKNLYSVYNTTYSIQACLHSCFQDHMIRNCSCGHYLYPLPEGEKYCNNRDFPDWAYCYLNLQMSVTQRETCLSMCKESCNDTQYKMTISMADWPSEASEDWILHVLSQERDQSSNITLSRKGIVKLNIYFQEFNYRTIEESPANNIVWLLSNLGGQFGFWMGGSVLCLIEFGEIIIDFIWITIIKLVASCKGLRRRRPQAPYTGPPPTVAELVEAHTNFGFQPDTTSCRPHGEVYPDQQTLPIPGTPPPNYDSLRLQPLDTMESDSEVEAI
T1 sequence (Q9WU39 1-655): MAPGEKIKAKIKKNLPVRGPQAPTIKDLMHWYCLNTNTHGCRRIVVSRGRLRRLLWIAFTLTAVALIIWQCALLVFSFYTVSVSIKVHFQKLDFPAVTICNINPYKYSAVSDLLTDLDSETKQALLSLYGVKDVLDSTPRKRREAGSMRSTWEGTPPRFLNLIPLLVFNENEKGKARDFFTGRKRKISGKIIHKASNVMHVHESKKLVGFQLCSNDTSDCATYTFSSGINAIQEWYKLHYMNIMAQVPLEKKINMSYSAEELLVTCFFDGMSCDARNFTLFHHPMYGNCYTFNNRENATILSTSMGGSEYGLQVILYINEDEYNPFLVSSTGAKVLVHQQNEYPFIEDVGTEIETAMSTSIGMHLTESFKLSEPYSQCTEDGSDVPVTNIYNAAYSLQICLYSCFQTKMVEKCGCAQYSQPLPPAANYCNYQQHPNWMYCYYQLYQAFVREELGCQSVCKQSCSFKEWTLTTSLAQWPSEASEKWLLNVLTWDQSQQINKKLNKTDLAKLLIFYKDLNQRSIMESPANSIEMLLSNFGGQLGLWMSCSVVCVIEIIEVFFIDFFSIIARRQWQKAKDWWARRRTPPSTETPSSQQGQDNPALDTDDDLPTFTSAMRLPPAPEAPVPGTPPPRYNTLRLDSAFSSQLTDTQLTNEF
In words: Ussing Chamber assay (short circuit current, amiloride sensitive I_SC) in M-1 cells. Conditions: Mouse kidney M-1 cells, apical application, 37° C. Format: cell-based. As to the method: The IC50 values of the example compounds given above were determined in the Ussing Chamber assay.
Ussing Chamber: Mouse kidney M-1 cells were cultivated in DMEM containing 5% FCS and 5 μM dexamethasone for 10 to 12 days on polyester transwell filters. Filters were inserted into a teflon-coated well-plate which fit into the ussing chamber system. Prior to measurement the medium of M-1 cells was replaced with Caco-2 transport buffer (Invitrogen, Germany). During measurements, the Ussing chamber temperature was kept at 37° C. Short circuit currents (I_sc) were measured in the voltage-clamp mode with the software package Lab View for data acquisition and analysis. The transepithelial electrical resistance (TEER) was determined by the application of voltage steps of ±5 mV every 5 sec. Compounds were administered at a final concentration of 3 μM or at increasing concentrations (1-3-10 μM) to the apical solution. At the end of each experiment the amiloride sensitive I_SC was measured by adding 3 μM amiloride to the apical compartment. Results are expressed as inhibition in percent of the amiloride effect or as IC50.

Data set [2] can be described thus: Permeability in CALU-3 cells. It counts as in vitro ADME. As to conditions: human, CALU-3 monolayers, pH 7.4, 37° C., 10 μM compound; for Papp A→B at 90 min, 10 μM: apical-to-basal; for Papp B→A at 90 min, 10 μM: basal-to-apical. Here is the method: Permeability in CALU-3 Cells:
Permeability measurements across polarized, confluent CALU-3 cell monolayers grown on permeable filter supports are used to provide information on the potential of a compound to pass the lung epithelium. Apparent permeability coefficients (Papp) of the compounds across the CALU-3 cell monolayers are measured (pH 7.4, 37° C.) in apical-to-basal (AB) and basal-to-apical (BA) transport direction.
CALU-3 cells (1-2×10^5 cells/1 cm^2 area) are seeded on filter inserts (Costar transwell polycarbonate filters, 0.4 μm pore size) and cultured (for 10-12 days DMEM) until tight monolayers are formed. Compounds of interest are dissolved in appropriate solvent (DMSO, 10 mM stock solution). Stock solutions are diluted with HTP-4 buffer (128.13 mM NaCl, 5.36 mM KCl, 1 mM MgSO4, 1.8 mM CaCl2, 4.17 mM NaHCO3, 1.19 mM Na2HPO4×7H2O, 0.41 mM NaH2PO4×H2O, 15 mM HEPES, 20 mM glucose, 0.25% BSA, pH 7.4) to prepare the transport solutions (10 μM compound, final DMSO<=0.5%). The transport solution (TL) is applied to the apical or basolateral donor side for measuring A-B or B-A permeability (3 filter replicates), respectively. The receiver side contains the same buffer as the donor side. After 30 min of accommodation, samples are collected at the start t0=0 min and at the end of the experiment tn=90 min from the donor and at 0, 30, 60, and 90 min also from the receiver chamber. Volume removed is […] by HTP-4 buffer. The compound concentration in the samples is measured by HPLC-MS/MS or scintillation counting. The permeability coefficient (Papp) and efflux ratio are calculated according to: Papp [cm/s]=(concentration receiver [nM]*volume receiver [mL]/time interval [sec])*(1/filter area)*(1/donor concentration [nM]).

`CCOCCNC(=O)c1cc2c(cc1N1CCOCC1)n(CC)c(CNC(=O)c1nc(Cl)c(N)nc1N)[n+]2CC.[Cl-]` [Example 5.01]: the concentration for half-maximal inhibition (IC50) (commonly the concentration that gives 50% inhibition) in data set [1] amounted to 5 nM. Also, in data set [2], the Papp A→B (commonly the apparent permeability from the apical to the basolateral side of a cell layer) at 90 min, 10 μM worked out at 0.3 ×10⁻⁶ cm/s and the basolateral-to-apical permeability (Papp B→A) (commonly how fast a substance crosses the layer from the basolateral side) at 90 min, 10 μM amounted to 0.06 ×10⁻⁶ cm/s.

With `CCNC(=O)c1cc2c(cc1OCC(=O)NCCN(C)C)n(CC)c(CNC(=O)c1nc(Cl)c(N)nc1N)[n+]2CC.Cl.[Cl-]` [Example 3.17], in data set [1], the half-inhibitory concentration (IC50) stood at 15 nM. For the same compound, in data set [2], the Papp A→B at 90 min, 10 μM worked out at 0.08 ×10⁻⁶ cm/s and the Papp B→A at 90 min, 10 μM is 0.08 ×10⁻⁶ cm/s.

Regarding `CCn1c(CNC(=O)c2nc(Cl)c(N)nc2N)[n+](CC)c2ccc(C(=O)NCCN(C)C)cc21.Cl.[Cl-]` [Example 3.06], the 50% inhibitory concentration (IC50) in data set [1] came out at 1 nM. In data set [2], this compound displayed a Papp A→B at 90 min, 10 μM of 0.02 ×10⁻⁶ cm/s and a Papp B→A at 90 min, 10 μM of 0.03 ×10⁻⁶ cm/s.

Compound `CCCCCCN1CCC(NC(=O)c2cc3c(cc2F)n(CC)c(CNC(=O)c2nc(Cl)c(N)nc2N)[n+]3CC)CC1.O=CO.O=C[O-]` [Example 10.01] gave an IC50 in data set [1] of 1 nM. For the same compound, in data set [2], the apical-to-basolateral permeability (Papp A→B) at 90 min, 10 μM was determined as 0.3 ×10⁻⁶ cm/s and the basolateral-to-apical permeability (Papp B→A) at 90 min, 10 μM was determined as 0.3 ×10⁻⁶ cm/s.

With `CC[n+]1c(CNC(=O)c2nc(Cl)c(N)nc2N)n(CC2CCCCC2)c2cc(OCCOP(=O)(O)CCC[N+](C)(C)C)ccc21` [Example 1.12], half-maximal inhibition in data set [1] (IC50) required 8 nM. In data set [2], this compound yielded a Papp A→B at 90 min, 10 μM of 0.1 ×10⁻⁶ cm/s and a Papp B→A at 90 min, 10 μM of 0.04 ×10⁻⁶ cm/s.

In data set [1], `CCCCCOc1cc2c(cc1C(=O)N1CCN(C(=O)Cc3ccccn3)CC1)[n+](CC)c(CNC(=O)c1nc(Cl)c(N)nc1N)n2C[C@H](C)O.O=C([O-])C(F)(F)F` [Example 4.15] yielded an IC50 of 34 nM. Moreover, in data set [2], the Papp A→B at 90 min, 10 μM came to 0.3 ×10⁻⁶ cm/s and the Papp B→A at 90 min, 10 μM amounted to 0.3 ×10⁻⁶ cm/s.

Consider `CC[n+]1c(CNC(=O)c2nc(Cl)c(N)nc2N)n(C[C@H](C)O)c2cc(N(C)C)c(C(=O)N3CCN(C(=O)Cc4ccccn4)CC3)cc21.O=C([O-])C(F)(F)F` [Example 4.14], for which the IC50 in data set [1] turned out to be 19 nM. Besides, in data set [2], the Papp A→B at 90 min, 10 μM was 0.3 ×10⁻⁶ cm/s and the apparent permeability from basolateral to apical (Papp B→A) at 90 min, 10 μM is 0.2 ×10⁻⁶ cm/s.

`CC[n+]1c(CNC(=O)c2nc(Cl)c(N)nc2N)n(C[C@H](C)O)c2cc(OCCN(CP(C)(C)=O)C(=O)CC(C)C)ccc21.O=C([O-])C(F)(F)F` [Example 1.05] yielded an IC50 in data set [1] of 1 nM. In addition, in data set [2], the Papp A→B at 90 min, 10 μM amounted to 0.1 ×10⁻⁶ cm/s and the apparent permeability from basolateral to apical (Papp B→A) at 90 min, 10 μM turned out to be 0.01 ×10⁻⁶ cm/s.

With `CC[n+]1c(CNC(=O)c2nc(Cl)c(N)nc2N)n(CC2CC2)c2cc(OCC(=O)N(C)Cc3nc(C)ccc3O)ccc21` [Example 1.08], the IC50 in data set [1] was determined as 1 nM. In data set [2], this compound had a Papp A→B at 90 min, 10 μM of 0.08 ×10⁻⁶ cm/s and a basolateral-to-apical permeability (Papp B→A) at 90 min, 10 μM of 0.2 ×10⁻⁶ cm/s.

In turn, `CC[n+]1c(CNC(=O)c2nc(Cl)c(N)nc2N)n(C[C@H](C)O)c2cc(N(C)C)c(C(=O)N3CCN(C(=O)OC(C)(C)C)CC3)cc21.O=C([O-])C(F)(F)F` [Example 1.02] registered an IC50 in data set [1] of 25 nM. In data set [2], the Papp A→B at 90 min, 10 μM is 0.08 ×10⁻⁶ cm/s and the apparent permeability from basolateral to apical (Papp B→A) at 90 min, 10 μM came out at 0.1 ×10⁻⁶ cm/s.
